Data on seven molecules can be found in PubChem BioAssay AID1259407 (Chemical Carcinogenesis Research Information System (CCRIS), 2018).

Each structure is given as a SMILES string. The source made the active and inactive calls. No rule for the calls is given here.

The series has as its system CCRIS mutagenicity, Ames/micronucleus/aberration tests. Kind of series: CCRIS mutagenicity studies.
Where [1] appears, read: Test System: AMES SALMONELLA TYPHIMURIUM, Strain/Indicator: TA98, Metabolic Activation: NONE, Method: STANDARD PLATE.
Where [2] appears, read: Test System: AMES SALMONELLA TYPHIMURIUM, Strain/Indicator: TA100, Metabolic Activation: NONE, Method: STANDARD PLATE.
Setting [3] is: Test System: AMES SALMONELLA TYPHIMURIUM, Strain/Indicator: TA98, Metabolic Activation: HAMSTER, LIVER, S-9, AROCLOR 1254 (10%), Method: PREINCUBATION
[4] abbreviates: Test System: AMES SALMONELLA TYPHIMURIUM, Strain/Indicator: TA98, Metabolic Activation: NONE, Method: PREINCUBATION
[5] abbreviates: Test System: AMES SALMONELLA TYPHIMURIUM, Strain/Indicator: TA98, Metabolic Activation: RAT, LIVER, S-9, AROCLOR 1254 (10%), Method: PREINCUBATION
Setting [6] is: Test System: AMES SALMONELLA TYPHIMURIUM, Strain/Indicator: TA100, Metabolic Activation: HAMSTER, LIVER, S-9, AROCLOR 1254 (10%), Method: PREINCUBATION
Setting [7] is: Test System: AMES SALMONELLA TYPHIMURIUM, Strain/Indicator: TA100, Metabolic Activation: NONE, Method: PREINCUBATION
Setting [8] is: Test System: AMES SALMONELLA TYPHIMURIUM, Strain/Indicator: TA100, Metabolic Activation: RAT, LIVER, S-9, AROCLOR 1254 (10%), Method: PREINCUBATION
Setting [9] is: Test System: AMES SALMONELLA TYPHIMURIUM, Strain/Indicator: TA1535, Metabolic Activation: HAMSTER, LIVER, S-9, AROCLOR 1254 (10%), Method: PREINCUBATION
Where [10] appears, read: Test System: AMES SALMONELLA TYPHIMURIUM, Strain/Indicator: TA1535, Metabolic Activation: NONE, Method: PREINCUBATION
Where [11] appears, read: Test System: AMES SALMONELLA TYPHIMURIUM, Strain/Indicator: TA1535, Metabolic Activation: RAT, LIVER, S-9, AROCLOR 1254 (10%), Method: PREINCUBATION

Consider `CS(C)=O.[Cl-].[Cl-].[Pt+2].c1ccncc1`, for which the mutagenic call by setting is: (Test System: AMES SALMONELLA TYPHIMURIUM, Strain/Indicator: TA92, Metabolic Activation: NONE, Method: STANDARD PLATE) “inactive; negative”; under setting [1], “inactive; negative”; under setting [2], “inactive; negative”; (Test System: AMES SALMONELLA TYPHIMURIUM, Strain/Indicator: TA2410, Metabolic Activation: NONE, Method: STANDARD PLATE) “inactive; negative”.

Turning to `FC(F)(F)C(F)(F)C(Cl)Cl`, the mutagenic call runs as follows: under setting [1], “inactive; negative”; (Test System: AMES SALMONELLA TYPHIMURIUM, Strain/Indicator: TA98, Metabolic Activation: RAT LIVER S-9, PHENOBARBITAL, 5,6-BENZOFLAVONE, Method: STANDARD PLATE) “inactive; negative”; under setting [2], “inactive; negative”; (Test System: AMES SALMONELLA TYPHIMURIUM, Strain/Indicator: TA100, Metabolic Activation: RAT LIVER S-9, PHENOBARBITAL, 5,6-BENZOFLAVONE, Method: STANDARD PLATE) “inactive; negative”; (Test System: AMES SALMONELLA TYPHIMURIUM, Strain/Indicator: TA1535, Metabolic Activation: NONE, Method: STANDARD PLATE) “inactive; negative”; (Test System: AMES SALMONELLA TYPHIMURIUM, Strain/Indicator: TA1535, Metabolic Activation: RAT LIVER S-9, PHENOBARBITAL, 5,6-BENZOFLAVONE, Method: STANDARD PLATE) “inactive; negative”. Also, the mutagenic call was “inactive; negative” (Test System: AMES SALMONELLA TYPHIMURIUM, Strain/Indicator: TA1537, Metabolic Activation: NONE, Method: STANDARD PLATE); “inactive; negative” (Test System: AMES SALMONELLA TYPHIMURIUM, Strain/Indicator: TA1537, Metabolic Activation: RAT LIVER S-9, PHENOBARBITAL, 5,6-BENZOFLAVONE, Method: STANDARD PLATE); “inactive; negative” (Test System: ESCHERICHIA COLI, Strain/Indicator: WP2 UVR A, Metabolic Activation: NONE, Method: STANDARD PLATE); “inactive; negative” (Test System: ESCHERICHIA COLI, Strain/Indicator: WP2 UVR A, Metabolic Activation: RAT LIVER S-9, PHENOBARBITAL, 5,6-BENZOFLAVONE, Method: STANDARD PLATE); “inactive; negative” (Test System: UDS RAT HEPATOCYTES IN VIVO, Strain/Indicator: THYMIDINE INCORPORATION, Metabolic Activation: NONE, Method: INHALATION (6HR, NOSE-ONLY, 2-OR 16-HR HARVEST)/AUTORADIOGRAPHY).

Take `N[C@H](CSSC[C@@H](N)C(=O)O)C(=O)O`: for the setting “Test System: AMES SALMONELLA TYPHIMURIUM, Strain/Indicator: TA98, Metabolic Activation: RAT LIVER S-9, CHLOROPHENE, Method: STANDARD PLATE (COMPOUND HEATED AT 250 DEGREES CELSIUS FOR 20 MIN)”, the mutagenic call was “active; positive”.

Turning to `O=[N+]([O-])c1ccc(Nc2ccc(O)cc2)c([N+](=O)[O-])c1`, the mutagenic call is, setting by setting: (Test System: AMES SALMONELLA TYPHIMURIUM, Strain/Indicator: TA97, Metabolic Activation: HAMSTER, LIVER, S-9, AROCLOR 1254 (10%), Method: PREINCUBATION) “active; positive”; (Test System: AMES SALMONELLA TYPHIMURIUM, Strain/Indicator: TA97, Metabolic Activation: NONE, Method: PREINCUBATION) “inactive; negative”; (Test System: AMES SALMONELLA TYPHIMURIUM, Strain/Indicator: TA97, Metabolic Activation: RAT, LIVER, S-9, AROCLOR 1254 (10%), Method: PREINCUBATION) “inactive; negative”; under setting [3], “active; positive”; under setting [4], “active; positive”; under setting [5], “active; positive”. The mutagenic call by setting is: under setting [6], “active; positive”; under setting [7], “active; positive”; under setting [8], “active; positive”; under setting [9], “inactive; negative”; under setting [10], “inactive; negative”; under setting [11], “inactive; negative”.

As to `CC(C)C(=O)Nc1ccccc1`, under setting [2], the mutagenic call is “inactive; negative”.

As for `O=CC(Br)CBr` (centres undefined), the mutagenic call is, setting by setting: under setting [7], “active; positive”; (Test System: AMES SALMONELLA TYPHIMURIUM, Strain/Indicator: TA100, Metabolic Activation: RAT, LIVER, MICROSOMES, Method: PREINCUBATION) “active; positive”; (Test System: UDS RAT HEPATOCYTES, Strain/Indicator: THY INCORP, Metabolic Activation: NONE) “inactive; negative”.

As to `CC(=O)[O][Hg][c]1ccccc1`, the mutagenic call was “inactive; negative” under setting [3]; “inactive; negative” under setting [4]; “inactive; negative” under setting [5]; “inactive; negative” under setting [6]; “inactive; negative” under setting [7]; “inactive; negative” under setting [8]. The mutagenic call is, setting by setting: under setting [9], “inactive; negative”; under setting [10], “inactive; negative”; under setting [11], “inactive; negative”; (Test System: AMES SALMONELLA TYPHIMURIUM, Strain/Indicator: TA1537, Metabolic Activation: HAMSTER, LIVER, S-9, AROCLOR 1254 (10%), Method: PREINCUBATION) “inactive; negative”; (Test System: AMES SALMONELLA TYPHIMURIUM, Strain/Indicator: TA1537, Metabolic Activation: NONE, Method: PREINCUBATION) “inactive; negative”; (Test System: AMES SALMONELLA TYPHIMURIUM, Strain/Indicator: TA1537, Metabolic Activation: RAT, LIVER, S-9, AROCLOR 1254 (10%), Method: PREINCUBATION) “inactive; negative”.
